“Also recorded” adds a separate entry of the source.
Assays:
[1] = test system: 3-NT levels in PFC of NVHL rats; assay: 3-Nitrotyrosine (3-NT) labeling in adult PFC of NVHL rats; type: in vivo, Sprague-Dawley rats; conditions: P61 NVHL rats, juvenile treatment
From the text: To assess oxidative stress, DNA oxidation with 8-oxo-7,8-dihydro-20-deoxyguanine (8-oxo-dG) labeling was quantified. […] 3-NT indicates nitration of proteins due to oxidative and nitrosative stress (Radi, 2004), and its increase in NVHL rats was prevented by NAC treatment during development (as shown in FIGS. 9A and 9B). […] A possible explanation for the levels of oxidative stress detected in the adult PFC following an NVHL is the reduced glutamatergic input from ventral hippocampus during development, as blocking NMDA receptors induces oxidative stress in PVI (Behrens et al., 2007).
(§1) Antioxidant pretreatment regimen: NAC (BioAdvantexPharma, Mississauga, Ontario, Canada) was administered in the drinking water at 900 mg/l. NAC treatment started at P5 or at P35, and previous work in mice has shown that NAC consumed by the dam is transmitted to the pups through her milk (das Neves Duarte et al., 2012). NAC treatment ended at P50. Fresh solutions were prepared every 2-3 days. Ebselen (Sound Pharmaceuticals Inc., Seattle, WA) was administered i.p. 5 days a week starting at P35 until the day of PPI testing (P60). Stock ebselen solution (20 mg/ml DMSO, frozen aliquots) was diluted 1:5 in sterile water and administered at a dose of 10 mg/kg. Control animals received an equivalent concentration of DMSO diluted 1:5 in water. […]

[2] = test system: perineuronal nets (PNN) in the PFC of NVHL rats; assay: WFA staining of perineuronal nets (PNN) around PVI in PFC of NVHL rats; type: in vivo, Sprague-Dawley rats; conditions: adult NVHL rats, juvenile treatment
From the text: To determine the types of interneurons expressing oxidative stress in NVHL rats, 8-oxo-dG with PV, calbindin (CB) and calretinin (CR) was co-labeled. […] About 50% of PVI were co-labeled with 8-oxo-dG, indicating oxidative stress is pervasive in this cell population. A marker of PVI maturation is Wisteria Floribunda agglutinin (WFA), a lectin that recognizes the perineuronal nets (PNN) enwrapping mature cortical PVI. […] PVI may be highly exposed to increased oxidative stress because they make up the majority of fast-spiking interneurons and their high energy metabolism may generate more reactive oxygen species than non-fast spiking neurons.
as §1

SZ = conditions: in vivo; cited from earlier work

CC(=O)N[C@@H](CS)C(=O)O [NAC, N-acetyl cysteine]
effect on increase in 3-NT labeling in PFC [1]: prevented
effect on reduced WFA staining / WFA-positive PVI (PNN) [2]: restored; also recorded: prevented
mismatch negativity in SZ (SZ): improved

Source: patent US20240050409A1, “Methods and Compositions for Treating Psychotic Disorders” (SOUND PHARMACEUTICALS INCORPORATED, priority 2014, published 2024)
